Experimental data: patent publication US8546320B2, “Hsp9O-targeted anti-cancer chimeric peptide” (Kyoto University, priority 2008, dated 2013)
Like-named read-outs stand apart in the source and are kept apart here. One block for each compound: values may come before it. Where a SMILES comes first, the peptide text is derived from it.

What was measured:
T47D = format: cell-based, human; settings: T47D
Protocol: (§1) A total of 3×10^3 cells were inoculated per well on a 96 well plate and cultured in a medium containing 10% FBS for 24 hours, and incubated with 100 μl of a peptide having a gradual increase in concentration at 37° C. for 48 to 72 hours. The survival rate of the cells was measured by using WST-8 solution (Cell Count Reagent SF; Nacalai Tesque, Inc.).

BXPC-3 = format: cell-based, human
cancer cells = experiment: Cell viability assay, summary statements on cancer cells; format: cell-based; settings: single mutation in TPR or Antp region of Antp-TPR
U937 = experiment: cells; format: cell-based, human; settings: for Anti-cancer activity (% relative to wild-type peptide) / Decrease in cell survival rate (% relative to wild-type peptide): U937, wild-type peptide = 100%; for IC50: U-937, Human AML cells U937, averages of two independent experiments, read-out: Anti-tumor activity, IC50
Protocol: (§2) A total of 3×10^3 cells per well were inoculated onto a 96 well plate, and incubated in a medium containing 10% FBS with 100 μl of a peptide diluted stepwise at 37° C. for 48 to 72 hours. The survival rate of the cells was measured by using WST-8 solution (Cell Count Reagent SF; Nacalai Tesque, Inc.).

Caki-1 [1] = format: cell-based, human; settings: Caki-1; wild-type peptide = 100%
HEK293 = experiment: cells; format: cell-based, human; settings: Homo sapiens, HEK293; Normal cells HEK; averages of two independent experiments; read-out: Anti-tumor activity, IC50
Protocol: as §1, §2

THP-1 = experiment: cells; format: cell-based, human; settings: for IC50: Human AML cells THP-1, averages of two independent experiments, read-out: Anti-tumor activity, IC50
Protocol: as §2

K562 = experiment: cells; format: cell-based, human; settings: for IC50: Human AML cells K562, averages of two independent experiments, read-out: Anti-tumor activity, IC50
Protocol: as §2

HL-60 = experiment: cells; format: cell-based, human; settings: for IC50: Human AML cells HL-60, averages of two independent experiments, read-out: Anti-tumor activity, IC50
Protocol: as §2

[2] = test system: human lung normal epithelial cell strain (WI38); experiment: Cell viability assay (WST-8), WI38; format: cell-based; settings: Normal cells W138, averages of two independent experiments, read-out: Anti-tumor activity, IC50
Protocol: as §2

[3] = test system: human normal pancreas epithelial cell strain (PE); experiment: Cell viability assay (WST-8), PE; format: cell-based; settings: Normal cells PE, averages of two independent experiments, read-out: Anti-tumor activity, IC50
Protocol: as §2

[4] = biological target: T1, interaction between Hsp90 and the Hop's TPR2A domain (Homo sapiens, UniProt P07900); experiment: BIACORE competition: Hsp90 pre-mixed with peptide, added to immobilized TPR2A; format: binding; settings: increasing peptide concentration
T1 construct: histidine tag; made in house; host or cells: Hsp90: E. coli BL21 (pDEST17-Hsp90)
Excerpt: It was examined whether the TPR peptide designed could compete specifically with the interaction between Hsp90, which is essential for the accurate folding of some carcinogenic protein including survivin in cancer cells, and the Hop's TPR2A domain.

Caki-1 [5] = format: cell-based, human; settings: Caki-1, 68 μM
Protocol: The TPR peptide or the TPR scramble peptide was mixed with a commercially available transfection reagent (Profect-P2 or, Lipofectamine LTX) and the mixture was left to incubate at room temperature for 20 minutes, to form liposome before the complex was added to cancer cells (Caki-1 (kidney cancer cells)); the survival rate of the cells was then measured by using WST-8 solution (Cell Count Reagent SF; Nacalai Tesque, Inc.) and the results were compared with those such as in the case of the TPR scramble peptide or the liposome alone.

Compound: CC[C@H](C)[C@H](NC(=O)[C@H](CCCNC(=N)N)NC(=O)[C@H](C)NC(=O)[C@H](Cc1ccc(O)cc1)NC(=O)[C@H](C)NC(=O)[C@H](CCCCN)NC(=O)[C@H](CCCNC(=N)N)NC(=O)[C@H](CCCNC(=N)N)NC(=O)[C@H](CCCNC(=N)N)NC(=O)[C@H](CCC(N)=O)NC(=O)[C@H](CCCNC(=N)N)NC(=O)[C@H](CCCNC(=N)N)NC(=O)[C@H](CCCCN)NC(=O)[C@H](CCCCN)NC(=O)[C@H](CCCNC(=N)N)NC(=O)CNC(=O)[C@@H](N)Cc1ccc(O)cc1)C(=O)NCC(=O)N[C@@H](CC(N)=O)C(=O)N[C@@H](CO)C(=O)N[C@@H](Cc1ccc(O)cc1)C(=O)N[C@@H](Cc1ccccc1)C(=O)N[C@@H](CCCCN)C(=O)O (H-YGRKKRRQRRRKAYARIGNSYFK-OH)
Cell Survival Rate (%) (T47D; 21 μM): 77.68% | Cell Survival Rate (%) (T47D; 42 μM): 58.60% | Cell Survival Rate (%) (T47D; 84 μM): 74.23% | Cell Survival Rate (%) (T47D; 168 μM): 17.92% | Cell Survival Rate (%) (BXPC-3; Bxpc3, 21 μM): 82.25% | Cell Survival Rate (%) (BXPC-3; Bxpc3, 42 μM): 73.08% | Cell Survival Rate (%) (BXPC-3; Bxpc3, 84 μM): 60.49% | Cell Survival Rate (%) (BXPC-3; Bxpc3, 168 μM): 47.24%

Compound: CC[C@H](C)[C@H](NC(=O)[C@H](CCCNC(=N)N)NC(=O)[C@H](C)NC(=O)[C@H](CC(C)C)NC(=O)[C@H](C)NC(=O)[C@H](CCCCN)NC(=O)[C@H](CCCCN)NC(=O)[C@H](CCCCN)NC(=O)[C@H](Cc1c[nH]c2ccccc12)NC(=O)[C@H](CCCCN)NC(=O)[C@H](CCSC)NC(=O)[C@H](CCCNC(=N)N)NC(=O)[C@H](CCCNC(=N)N)NC(=O)[C@H](CC(N)=O)NC(=O)[C@H](CCC(N)=O)NC(=O)[C@H](Cc1ccccc1)NC(=O)[C@H](Cc1c[nH]c2ccccc12)NC(=O)[C@@H](NC(=O)[C@H](CCCCN)NC(=O)[C@@H](NC(=O)[C@H](CCC(N)=O)NC(=O)[C@@H](N)CCCNC(=N)N)[C@@H](C)CC)[C@@H](C)CC)C(=O)NCC(=O)N[C@@H](CC(N)=O)C(=O)N[C@@H](CO)C(=O)N[C@@H](Cc1ccc(O)cc1)C(=O)N[C@@H](Cc1ccccc1)C(=O)N[C@@H](CCCCN)C(=O)O [Antp-Y3L] (H-RQIKIWFQNRRMKWKKKALARIGNSYFK-OH; N-terminus and C-terminus assumed)
effect compared with the wild-type protein (summary of mutations) (cancer cells): effective but with a lower effect than the wild-type protein | Cell Survival Rate (%) (U937): 60.94% | Anti-cancer activity (% relative to wild-type peptide) (U937): 50.89% | Decrease in cell survival rate (% relative to wild-type peptide) (U937): 38.14% | Anti-cancer activity (% relative to wild-type peptide) (Caki-1 [1]): 52.87% | Decrease in cell survival rate (% relative to wild-type peptide) (Caki-1 [1]): 20.23%

Compound: CC[C@H](C)[C@H](NC(=O)[C@H](CCCNC(=N)N)NC(=O)[C@H](C)NC(=O)[C@H](Cc1ccc(O)cc1)NC(=O)[C@H](C)NC(=O)[C@H](CCCCN)NC(=O)[C@H](CCCCN)NC(=O)[C@H](CCCCN)NC(=O)[C@H](Cc1c[nH]c2ccccc12)NC(=O)[C@H](CCCCN)NC(=O)[C@H](CCSC)NC(=O)[C@H](CCCNC(=N)N)NC(=O)[C@H](CCCNC(=N)N)NC(=O)[C@H](CC(N)=O)NC(=O)[C@H](CCC(N)=O)NC(=O)[C@H](Cc1ccccc1)NC(=O)[C@H](Cc1c[nH]c2ccccc12)NC(=O)[C@@H](NC(=O)[C@H](CCCCN)NC(=O)[C@@H](NC(=O)[C@H](CCC(N)=O)NC(=O)[C@@H](N)CCCNC(=N)N)[C@@H](C)CC)[C@@H](C)CC)C(=O)NCC(=O)N[C@@H](CC(N)=O)C(=O)N[C@@H](CO)C(=O)N[C@@H](CO)C(=O)N[C@@H](Cc1ccccc1)C(=O)N[C@@H](CCCCN)C(=O)O [Antp-Y10S] (H-RQIKIWFQNRRMKWKKKAYARIGNSSFK-OH; N-terminus and C-terminus assumed)
effect compared with the wild-type protein (summary of mutations) (cancer cells): effect similar to that of the wild-type protein | Cell Survival Rate (%) (U937): 28.05% | Anti-cancer activity (% relative to wild-type peptide) (U937): 93.73% | Decrease in cell survival rate (% relative to wild-type peptide) (U937): 82.83% | Anti-cancer activity (% relative to wild-type peptide) (Caki-1 [1]): 74.56% | Decrease in cell survival rate (% relative to wild-type peptide) (Caki-1 [1]): 31.97%

IC50 (U937): 650 nM | IC50 (THP-1): 700 nM | IC50 (K562): 750 nM | IC50 (HL-60): 700 nM
Compound: COC1=C2C[C@@H](C)C[C@H](OC)[C@H](O)[C@@H](C)/C=C(\C)[C@H](OC(N)=O)[C@@H](OC)/C=C\C=C(/C)C(=O)NC(=CC1=O)C2=O [Geldanamycin, geldanamycin]
IC50 (HEK293): 700 nM | Cell Survival Rate (%) (U937; U937, 1.25 μM): 5.40% | Cell Survival Rate (%) (U937; U937, 2.5 μM): 6.26% | Cell Survival Rate (%) (U937; U937, 5 μM): 4.65% | Cell Survival Rate (%) (U937; U937, 10 μM): 5.78% | Cell Survival Rate (%) (THP-1; THP-1, 1.25 μM): 6.20% | Cell Survival Rate (%) (THP-1; THP-1, 2.5 μM): 5.01% | Cell Survival Rate (%) (THP-1; THP-1, 5 μM): 4.49% | Cell Survival Rate (%) (THP-1; THP-1, 10 μM): 7.12% | Cell Survival Rate (%) (K562; K562, 1.25 μM): 20.08% | Cell Survival Rate (%) (K562; K562, 2.5 μM): 9.75% | Cell Survival Rate (%) (K562; K562, 5 μM): 7.07% | Cell Survival Rate (%) (K562; K562, 10 μM): 6.60% | Cell Survival Rate (%) (HL-60; HL-60, 1.25 μM): 6.65% | Cell Survival Rate (%) (HL-60; HL-60, 2.5 μM): 6.02% | Cell Survival Rate (%) (HL-60; HL-60, 5 μM): 5.03% | Cell Survival Rate (%) (HL-60; HL-60, 10 μM): 5.23% | IC50 [2]: 1000 nM | IC50 [3]: 700 nM

IC50 (U937): 700 nM | IC50 (THP-1): 750 nM | IC50 (K562): 700 nM | IC50 (HL-60): 1050 nM
Compound: C=CCNC1=C2C[C@@H](C)C[C@H](OC)[C@H](O)[C@@H](C)/C=C(\C)[C@H](OC(N)=O)[C@@H](OC)/C=C\C=C(/C)C(=O)NC(=CC1=O)C2=O [Peptide 17-AAG, 17-allylaminogeldanamycin]
IC50 (HEK293): 700 nM | Cell Survival Rate (%) (U937; U937, 1.25 μM): 5.21% | Cell Survival Rate (%) (U937; U937, 2.5 μM): 4.03% | Cell Survival Rate (%) (U937; U937, 5 μM): 4.97% | Cell Survival Rate (%) (U937; U937, 10 μM): 4.16% | Cell Survival Rate (%) (THP-1; THP-1, 1.25 μM): 6.80% | Cell Survival Rate (%) (THP-1; THP-1, 2.5 μM): 5.49% | Cell Survival Rate (%) (THP-1; THP-1, 5 μM): 6.56% | Cell Survival Rate (%) (THP-1; THP-1, 10 μM): 7.76% | Cell Survival Rate (%) (K562; K562, 1.25 μM): 5.67% | Cell Survival Rate (%) (K562; K562, 2.5 μM): 5.08% | Cell Survival Rate (%) (K562; K562, 5 μM): 5.67% | Cell Survival Rate (%) (K562; K562, 10 μM): 6.35% | Cell Survival Rate (%) (HL-60; HL-60, 1.25 μM): 37.03% | Cell Survival Rate (%) (HL-60; HL-60, 2.5 μM): 19.70% | Cell Survival Rate (%) (HL-60; HL-60, 5 μM): 8.37% | Cell Survival Rate (%) (HL-60; HL-60, 10 μM): 3.87% | IC50 [2]: 700 nM | IC50 [3]: 800 nM

Compound: CC[C@H](C)[C@H](NC(=O)[C@H](C)NC(=O)[C@H](C)NC(=O)[C@H](CO)NC(=O)[C@H](Cc1ccccc1)NC(=O)[C@H](CCCCN)NC(=O)[C@@H](N)CCCNC(=N)N)C(=O)NCC(=O)N[C@@H](Cc1ccc(O)cc1)C(=O)N[C@@H](CC(N)=O)C(=O)N[C@@H](CCCCN)C(=O)N[C@@H](Cc1ccc(O)cc1)C(=O)O [TPR scramble, reference compound] (H-RKFSAAIGYNKY-OH; N-terminus and C-terminus assumed)
inhibition of the interaction between Hsp90 and TPR2A [4]: does not inhibit the interaction completely | killing effect after introduction with transfection reagent (Caki-1 [5]): not observed

Compound: TPR mutant 1: TPR mutant 1 peptide without Antp, SEQ ID No. 70; sequence not printed in the text (KAYAAAGNSYTFK; TPR mutant 1)
inhibition of the interaction between Hsp90 and TPR2A [4]: does not inhibit the interaction completely
